Results: patent publication US20190284129A1, “LIPID COMPOUNDS AND COMPOSITIONS AND THEIR OPTHALMIC USE” (BIOZEP AS, priority 2015, published 2019)

Test system: ARPE-19 cells
Test: oxidative stress (tert-butyl hydroperoxide) cytolysis assay in ARPE-19 retinal pigment epithelial cells
Type: cell-based
Conditions: for inhibition of the cytotoxicity induced by t-BHP: BIZ-102 10 μM
Method: In order to evaluate the potential of BIZ-101 to protective the eye from oxidative stress damage the compound was tested in a cell based assay. Oxidative stress was induced in an ARPE-19 cell line using tert-butyl hydroperoxide at different concentrations. The cellular viability was kinetically monitored and measured by analysing the plasma membrane integrity based on the incorporation of a non-permeant and fluorescent DNA intercalating agent that selectively stain cytolytic cells with comprised plasma membranes.
(§1) The ARPE-19 cell line was seeded and cultured in DMEM-F12 medium+10% SVF for 24 hrs in a 96 well plate. Cells were pre-treated or not with either fenofibric acid (25 μM) or compound BIZ-101 (10 μM) during this 24 hr period. After 24 hrs, the different concentrations of t-butyl hydroperoxide were added in the presence of a fluorescent DNA intercalating agent for the following monitoring. Live content time-lapse imaging was performed with a sampling rate of 1 image every 2 hr over a 96 hrs period. The number of fluorescent/cytolytic cells were counted and reported during the experiment. The treatment conditions were tested in one experiment session in a triplicate format.
Fenofibric acid was used at 25 μM and was ordered from Sigma Aldrich. The day of the pre-treatment, a 25 mM stock solution of fenofibric acid was prepared in DMSO and diluted in the complete culture medium at 25 μM. 100 μL of this solution or 100 μL of complete culture medium+0.1% DMSO replaced the 100 μL of the complete culture medium already present in the well. The day of the treatment with t-butyl hydroperoxide, a 2 times concentrated solution of fenofibric acid was freshly diluted in the complete culture medium and 50 μL of this solution or 50 μL of complete culture medium+0.2% DMSO were added to the 100 μL of the culture medium already present in the well.
Compound BIZ-101 was tested at a final concentration of 10 μM. A 10 mM predilution was prepared in DMSO from a 10 mM stock solution. The 10 mM solution of BIZ 101 was diluted in the complete culture medium at 10 μM. 100 μL, of this solution or 100 μL of the complete culture medium+0.1% DMSO replaced the 100 μL, of the complete culture medium already present in the well. The day of the treatment with t-butyl hydroperoxide, a 2 times concentrated solution of BIZ 101 was freshly diluted in the complete culture medium and 50 μL of this solution or 50 μL of complete culture medium+0.2% DMSO were added to the 100 μL of the culture medium already present in the well.
Preparation of the tert-butyl hydroperoxide [tBHP] solution: 0, 0.01 mM, 0.03 mM, 0.1 mM, 0.3 mM, 1 mM, 3 mM and 10 mM. A 4 times concentrated solution of tBHP was freshly diluted in the complete culture medium for each of the concentrations to be tested. 50 μL of the 4 times concentrated solution was added to the 150 μL of the cultured medium.
In order to evaluate the potential of BIZ-102 to protect the eye from oxidative stress damage the compound was tested in a cell based assay similar to Example 24 with the following changes. The oxidative stress in the ARPE-19 cell line was induced by using 3 different concentrations of tBHP: 10 μM, 30 μM and 100 μM and BIZ-102 was tested in 2 different concentrations: 1 μM and 10 μM.
as §1, with “with” for “with either fenofibric acid (25 μM) or”, “BIZ-102 (1 μM and 10” for “BIZ-101 (10”
Compound BIZ-102 was tested at a final concentration of 1 and 10 μM. […]

CCCCC/C=C\C/C=C\C/C=C\C/C=C\CCC(CC)C(=O)O (stereo not drawn) [BIZ-102, (All-Z) 2-ethyl-5,8,11,14-eicosatetraenoic Acid]
inhibition of the cytotoxicity induced by t-BHP (10 μM t-BHP, FIG. 9A): significant inhibition | inhibition of the cytotoxicity induced by t-BHP (30 μM t-BHP, FIG. 9B): significant inhibition | effect on retinal pigment epithelial cells during conditions of oxidative stress (overall conclusion): protective effect
